Data on 1 molecule can be found in ChEMBL document CHEMBL1129821, “Synthesis and biological evaluation of non-polyene analogs of amphotericin B” (1997).

Converted amounts (≈) assume the structure as drawn.

For one assay, the system named is Candida albicans. Briefly: Minimum inhibitory concentration required for antifungal activity against Candida albicans(16820). The assay is classed as functional.
The test system of another assay is Cryptococcus neoformans. Nature of the assay: Minimum inhibitory concentration required for antifungal activity against Cryptococcus neoformans (271A). The assay is classed as functional.

As a reminder, the MIC is the lowest concentration that inhibits growth of the organism. Low values mean greater potency, high ones weaker potency.

On to `COC(=O)[C@H]1[C@@H]2C[C@@H](O[C@@H]3O[C@H](C)[C@@H](O)[C@H](N)[C@@H]3O)/C=C/C=C/C=C/C=C/C=C/C=C/C=C/[C@H](C)[C@@H](O)[C@@H](C)[C@H](C)OC(=O)C[C@H](O)C[C@H](O)CC[C@@H](O)[C@H](O)C[C@H](O)C[C@](O)(C[C@@H]1O)O2` [AMPHOTERICIN B ME ESTER], for which the MIC in the assay with Candida albicans and in the assay with Cryptococcus neoformans was 8000 µg/mL (≈ 8.53 mM) each time.
